Data on 20 compounds can be found in patent US9969752B2, “Inhibitors of HIF prolyl hydroxylase” (MERCK SHARP & DOHME CORP., priority 2014, dated 2018).

Structures are written as SMILES.

In one assay the target is T1, Human HIF-PHD2 (Homo sapiens, UniProt Q9GZT9).
T1 construct: FLAG-tagged full length PHD2 expressed in and purified from baculovirus-infected Sf9 cells; FLAG; made in house; host or cells: baculovirus-infected Sf9 cells
T1 sequence (Q9GZT9 whole entry): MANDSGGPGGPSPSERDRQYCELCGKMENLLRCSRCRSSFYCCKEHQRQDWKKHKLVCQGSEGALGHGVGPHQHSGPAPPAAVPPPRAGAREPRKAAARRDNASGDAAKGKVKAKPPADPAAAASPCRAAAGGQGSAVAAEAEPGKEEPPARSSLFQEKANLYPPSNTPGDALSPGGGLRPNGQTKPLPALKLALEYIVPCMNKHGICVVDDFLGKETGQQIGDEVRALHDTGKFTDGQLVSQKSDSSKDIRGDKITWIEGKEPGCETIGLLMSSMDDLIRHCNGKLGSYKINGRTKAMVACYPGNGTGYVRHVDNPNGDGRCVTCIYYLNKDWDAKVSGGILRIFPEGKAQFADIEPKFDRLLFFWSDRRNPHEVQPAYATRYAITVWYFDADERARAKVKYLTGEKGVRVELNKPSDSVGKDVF
Briefly: Inhibition of the hydroxylation of a HIF peptide by PHD2 (time resolved fluorescence, 384-well). The assay is classed as biochemical. The conditions noted are these: FLAG-tagged full length PHD2; 0.2 μM 2-oxoglutarate, 0.5 μM HIF-1α peptide; 45 minutes at room temperature; read-out: Human HIF-PHD2 IC50. The protocol: To each well of a 384-well plate, 1 μL of test compounds in DMSO (final concentration ranging from 0.3 nM to 10 uM) were added into 20 μl of assay buffer (50 mM Tris pH 7.4/0.01% Tween-20/0.1 mg/ml bovine serum albumin/10 μM ferrous sulfate/1 mM sodium ascorbate/20 μg/ml catalase) containing 0.15 μg/ml FLAG-tagged full length PHD2 expressed in and purified from baculovirus-infected Sf9 cells. After a 5 min preincubation at room temperature, the enzymatic reactions were initiated by the addition of 4 μL of substrates {final concentrations of 0.2 μM 2-oxoglutarate and 0.5 μM HIF-1α peptide biotinyl-[…] […] After incubation for 45 minutes at room temperature, the reactions were terminated by the addition of a 25 μL quench/detection mix to a final concentration of 1 mM ortho-phenanthroline, 0.1 mM EDTA, 0.5 nM anti-(His)6 LANCE reagent (Perkin-Elmer Life Sciences), 100 nM AF647-labeled streptavidin (Invitrogen), and 2 μg/ml (His)6-VHL complex {S. Tan Protein Expr. Purif.
On to `O=C(O)CNC(=O)c1c(O)c2cccc3c2n(c1=O)C(c1ccc(C(F)(F)F)cc1)CO3` (racemic) [Example 1, 2-(7-Hydroxy-5-oxo-3-(4-(trifluoromethyl)phenyl)-3,5-dihydro-2H-[1,4]oxazino[2,3,4-ij]quinoline-6-carboxamido)acetic acid], for which the IC50 is 15.8 nM.
Still for that read-out and setting: to `O=C(O)CNC(=O)c1c(O)c2cccc3c2n(c1=O)CC(c1cncs1)C3` (racemic) [Example 50, 2-(1-Hydroxy-3-oxo-6-(thiazol-5-yl)-3,5,6,7-tetrahydropyrido[3,2,1-ij]quinoline-2-carboxamido)acetic acid] belongs 7.3 nM; to `O=C(O)CNC(=O)c1c(O)c2cccc3c2n(c1=O)C(c1ccccc1)C3` (racemic) [Example 129, 2-(6-Hydroxy-4-oxo-2-phenyl-2,4-dihydro-1H-pyrrolo[3,2,1-ij]quinoline-5-carboxamido)acetic acid], 74 nM; to `O=C(O)CNC(=O)c1c(O)c2cccc3c2n(c1=O)C(Cc1ccc(Cl)cc1)CC3` (racemic) [Example 131, 2-(5-(4-Chlorobenzyl)-1-hydroxy-3-oxo-3,5,6,7-tetrahydropyrido[3,2,1-ij]quinoline-2-carboxamido)acetic acid], 15 nM.
Consider `O=C(O)CNC(=O)c1c(O)c2cccc3c2n(c1=O)C(c1ccc(Br)cc1)CO3` (racemic) [Example 133, 2-(3-(4-Bromophenyl)-7-hydroxy-5-oxo-3,5-dihydro-2H-[1,4]oxazino[2,3,4-ij]quinoline-6-carboxamido)acetic acid], for which the IC50 was 17 nM.
Regarding `O=C(O)CNC(=O)c1c(O)c2cccc3c2n(c1=O)C(c1ccc(C(F)(F)F)cc1)CO3` (single isomer, unassigned) [Example 1a, 2-(7-Hydroxy-5-oxo-3-(4-(trifluoromethyl)phenyl)-3,5-dihydro-2H-[1,4]oxazino[2,3,4-ij]quinoline-6-carboxamido)acetic acid], the IC50 worked out at 33.7 nM.
Regarding `O=C(O)CNC(=O)c1c(O)c2cccc3c2n(c1=O)C(c1ccc(C(F)(F)F)cc1)CO3` (single isomer, unassigned) [Example 1b, 2-(7-Hydroxy-5-oxo-3-(4-(trifluoromethyl)phenyl)-3,5-dihydro-2H-[1,4]oxazino[2,3,4-ij]quinoline-6-carboxamido)acetic acid], the IC50 is 13.1 nM.
In the case of `CS(=O)(=O)c1cc2c3c(c1)c(O)c(C(=O)NCC(=O)O)c(=O)n3CC(c1ccc(C(F)(F)F)cc1)O2` (single isomer, unassigned) [Example 17, 2-(7-Hydroxy-9-(methylsulfonyl)-5-oxo-2-(4-(trifluoromethyl)phenyl)-3,5-dihydro-2H-[1,4]oxazino[2,3,4-ij]quinoline-6-carboxamido)acetic acid], the IC50 is 0.9 nM.
On the same count and under the same terms, to `CS(=O)(=O)c1cc2c3c(c1)c(O)c(C(=O)NCC(=O)O)c(=O)n3CC(c1ccc(C(F)(F)F)cc1)O2` (single isomer, unassigned) [Example 18, 2-(7-Hydroxy-9-(methylsulfonyl)-5-oxo-2-(4-(trifluoromethyl)phenyl)-3,5-dihydro-2H-[1,4]oxazino[2,3,4-ij]quinoline-6-carboxamido)acetic acid] belongs 1.3 nM; to `N#Cc1ccc2c(O)c(C(=O)NCC(=O)O)c(=O)n3c2c1OC(c1ccc(C(F)(F)F)cc1)C3` (single isomer, unassigned) [Example 20, 2-(10-Cyano-7-hydroxy-5-oxo-2-(4-(trifluoromethyl)phenyl)-3,5-dihydro-2H-[1,4]oxazino[2,3,4-ij]quinoline-6-carboxamido)acetic acid], 0.5 nM.
The same measure, in the same setting: the result for `N#Cc1ccc2c(O)c(C(=O)NCC(=O)O)c(=O)n3c2c1OC(c1ccc(C(F)(F)F)cc1)C3` (single isomer, unassigned) [Example 21, 2-(10-Cyano-7-hydroxy-5-oxo-2-(4-(trifluoromethyl)phenyl)-3,5-dihydro-2H-[1,4]oxazino[2,3,4-ij]quinoline-6-carboxamido)acetic acid] reads 0.6 nM.
Take `CS(=O)(=O)c1ccc2c(O)c(C(=O)NCC(=O)O)c(=O)n3c2c1OC(c1ccc(C(F)(F)F)cc1)C3` (single isomer, unassigned) [Example 23, 2-(7-Hydroxy-10-(methylsulfonyl)-5-oxo-2-(4-(trifluoromethyl)phenyl)-3,5-dihydro-2H-[1,4]oxazino[2,3,4-ij]quinoline-6-carboxamido)acetic acid]: the IC50 amounted to 1.6 nM.
In the case of `CS(=O)(=O)c1ccc2c(O)c(C(=O)NCC(=O)O)c(=O)n3c2c1OC(c1ccc(C(F)(F)F)cc1)C3` (single isomer, unassigned) [Example 24, 2-(7-Hydroxy-10-(methylsulfonyl)-5-oxo-2-(4-(trifluoromethyl)phenyl)-3,5-dihydro-2H-[1,4]oxazino[2,3,4-ij]quinoline-6-carboxamido)acetic acid], the IC50 was 1.3 nM.
The same measure, in the same setting: the result for `O=C(O)CNC(=O)c1c(O)c2cccc3c2n(c1=O)CC(c1cncs1)C3` (single isomer, unassigned) [Example 50a, 2-(1-Hydroxy-3-oxo-6-(thiazol-5-yl)-3,5,6,7-tetrahydropyrido[3,2,1-ij]quinoline-2-carboxamido)acetic acid] reads 6.7 nM; that for `O=C(O)CNC(=O)c1c(O)c2cccc3c2n(c1=O)CC(c1cncs1)C3` (single isomer, unassigned) [Example 50b, 2-(1-Hydroxy-3-oxo-6-(thiazol-5-yl)-3,5,6,7-tetrahydropyrido[3,2,1-ij]quinoline-2-carboxamido)acetic acid], 8.3 nM; that for `O=C(O)CNC(=O)c1c(O)c2c(F)ccc3c2n(c1=O)CC(c1ccc(C(F)(F)F)cc1)O3` (single isomer, unassigned) [Example 68, 2-(8-Fluoro-7-hydroxy-5-oxo-2-(4-(trifluoromethyl)phenyl)-3,5-dihydro-2H-[1,4]oxazino[2,3,4-ij]quinoline-6-carboxamido)acetic acid], 4.9 nM.
On the same count and under the same terms, to `O=C(O)CNC(=O)c1c(O)c2c(Cl)ccc3c2n(c1=O)CC(c1ccc(C(F)(F)F)cc1)O3` (single isomer, unassigned) [Example 70, 2-(8-Chloro-7-hydroxy-5-oxo-2-(4-(trifluoromethyl)phenyl)-3,5-dihydro-2H-[1,4]oxazino[2,3,4-ij]quinoline-6-carboxamido)acetic acid] belongs 1.8 nM; to `O=C(O)CNC(=O)c1c(O)c2ccc(Cl)c3c2n(c1=O)CC(c1ccc(C(F)(F)F)cc1)O3` (single isomer, unassigned) [Example 72, 2-(10-Chloro-7-hydroxy-5-oxo-2-(4-(trifluoromethyl)phenyl)-3,5-dihydro-2H-[1,4]oxazino[2,3,4-ij]quinoline-6-carboxamido)acetic acid], 2.6 nM.

The assay is the same for the next values; noted with them: FLAG-tagged full length PHD2; 0.2 μM 2-oxoglutarate, 0.5 μM HIF-1α peptide; 45 minutes at room temperature; read-out: MS m/z (M + 1)+ and human HIF-PHD2 IC50.
Turning to `O=C(O)CNC(=O)c1c(O)c2c(F)ccc3c2n(c1=O)CC(c1ccc(C(F)(F)F)cc1)O3` (single isomer, unassigned) [Example 69, 2-(8-fluoro-7-hydroxy-5-oxo-2-(4-(trifluoromethyl)phenyl)-3,5-dihydro-2H-[1,4]oxazino[2,3,4-ij]quinoline-6-carboxamido)acetic acid], the IC50 came to 3.3 nM.
Same read-out and setting: the result for `O=C(O)CNC(=O)c1c(O)c2c(Cl)ccc3c2n(c1=O)CC(c1ccc(C(F)(F)F)cc1)O3` (single isomer, unassigned) [Example 71, 2-(8-chloro-7-hydroxy-5-oxo-2-(4-(trifluoromethyl)phenyl)-3,5-dihydro-2H-[1,4]oxazino[2,3,4-ij]quinoline-6-carboxamido)acetic acid] reads 5.1 nM.
